Assay results: patent publication US4740233A, “Substituted 1,2,4-triazolo[1,5-a]-pyrimidine-2-sulfonamides and compositions and methods of controlling undesired vegetation and suppressing the nitrification of ammonium nitrogen in soil” (The Dow Chemical Company, priority 1986, dated 1988)

Experiments:
sorghum = test: Preemergent control of plant species; assay type: in vivo, Sorghum vulgare; settings: Sorghum, pre-emergence, 336 h; 0.25 lb/acre; read-out: percent preemergent control
In short: (§1)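 Seeds planted in good agricultural soil beds; active ingredients then applied to the bed surface as aqueous emulsion at listed rates. Beds kept two weeks in greenhouse with watering. Control scored against water-treated beds.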

wheat = test: Preemergent control of plant species; assay type: in vivo, Triticum aestivum; settings: Triticum aestivum, pre-emergence, 336 h; 0.25 lb/acre; read-out: percent preemergent control
In short: as §1

sugar beet = test: Preemergent control of plant species; assay type: in vivo, Beta saccharifera; settings: Beta vulgaris, pre-emergence, 336 h; 0.25 lb/acre; read-out: percent preemergent control
In short: as §1

soybean = test: Preemergent control of plant species; assay type: in vivo, Glycine max.; settings: Glycine max, pre-emergence, 336 h; 0.25 lb/acre; read-out: percent preemergent control
In short: as §1

yellow foxtail = test: Preemergent control of plant species; assay type: in vivo, Setaria lutescens; settings: Setaria, pre-emergence, 336 h; 0.25 lb/acre; read-out: percent preemergent control
In short: as §1

corn = test: Preemergent control of plant species; assay type: in vivo, Zea mays; settings: Zea mays, pre-emergence, 336 h; 0.25 lb/acre; read-out: percent preemergent control
In short: as §1

velvetleaf = test: Preemergent control of plant species; assay type: in vivo, Abutilon theophrasti; settings: Abutilon theophrasti, pre-emergence, 336 h; 0.25 lb/acre; read-out: percent preemergent control
In short: as §1

cotton = test: Preemergent control of plant species; assay type: in vivo, Gossypium spp.; settings: Gossypium hirsutum, pre-emergence, 336 h; 0.25 lb/acre; read-out: percent preemergent control
In short: as §1

johnson grass = test: Preemergent control of plant species; assay type: in vivo, Sorghum halepense; settings: Sorghum halepense, pre-emergence, 336 h; 0.25 lb/acre; read-out: percent preemergent control
In short: as §1

yellow nutsedge = test: Preemergent control of plant species; assay type: in vivo, Cyperus esculentus; settings: Cyperus, pre-emergence, 336 h; 0.25 lb/acre; read-out: percent preemergent control
In short: as §1

wild oats = test: Preemergent control of plant species; assay type: in vivo; settings: Avena fatua, pre-emergence, 336 h; 0.25 lb/acre; read-out: percent preemergent control
Experimental: The seeds of various species of plants were planted in beds of good agricultural soil in a greenhouse. A number of compositions of the present invention, generally in the nature of an aqueous emulsion, were applied at rates listed in the table so as to deposit a predetermined amount of active ingredients uniformly throughout the surface of the bed. Another seed bed was treated only with water to serve as a control. After treatment the seed beds were maintained for two weeks under greenhouse conditions conducive for good plant growth and watered as necessary. Control refers to the reduction in growth compared to the observed results of the same untreated species.

jimsonweed = test: Preemergent control of plant species; assay type: in vivo, Datura stramonium; settings: Datura stramonium, pre-emergence, 336 h; 0.25 lb/acre; read-out: percent preemergent control
In short: as §1

barnyardgrass = test: Preemergent control of plant species; assay type: in vivo, Echinochloa crusgalli; settings: Echinochloa crus-galli, pre-emergence, 336 h; 0.25 lb/acre; read-out: percent preemergent control
In short: as §1

rape = test: Preemergent control of plant species; assay type: in vivo, Brassica napus; settings: Brassica napus, pre-emergence, 336 h; 0.25 lb/acre; read-out: percent preemergent control
In short: as §1

annual morning glory = test: Preemergent control of plant species; assay type: in vivo, Ipomoea spp.; settings: Ipomoea, pre-emergence, 336 h; 0.25 lb/acre; read-out: percent preemergent control
In short: as §1

rice = test: Preemergent control of plant species; assay type: in vivo, Oryza sativa; settings: Oryza sativa, pre-emergence, 336 h; 0.25 lb/acre; read-out: percent preemergent control
In short: as §1

[1] = system: nitrification of ammonium nitrogen; test: Suppression of nitrification of ammonium nitrogen in soil; settings: 27° C.
In short: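 Value is % NH4-N remaining after a two-week, 27° C incubation of treated soil held at 1/3 bar tension moisture. Nitrate was measured with an ion-selective electrode after extraction with ammonium sulfate solution and 10 min shaking.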

Row | Structure (SMILES) | plant injury at 280.212 g/ha (sorghum) [%] | plant injury at 280.212 g/ha (wheat) [%] | plant injury at 280.212 g/ha (sugar beet) [%] | plant injury at 280.212 g/ha (soybean) [%] | pest or weed control at 280.212 g/ha (yellow foxtail) [%] | plant injury at 280.212 g/ha (corn) [%] | pest or weed control at 280.212 g/ha (velvetleaf) [%] | plant injury at 280.212 g/ha (cotton) [%] | pest or weed control at 280.212 g/ha (johnson grass) [%] | pest or weed control at 280.212 g/ha (yellow nutsedge) [%] | pest or weed control at 280.212 g/ha (wild oats) [%] | pest or weed control at 280.212 g/ha (jimsonweed) [%] | pest or weed control at 280.212 g/ha (barnyardgrass) [%] | plant injury at 280.212 g/ha (rape) [%] | pest or weed control at 280.212 g/ha (annual morning glory) [%] | plant injury at 280.212 g/ha (rice) [%] | % NH4-N Remaining After 2 Weeks Incubation ([1]; 0.06 ppm) [%] | % NH4-N Remaining After 2 Weeks Incubation ([1]; 0.25 ppm) [%] | % NH4-N Remaining After 2 Weeks Incubation ([1]; 1 ppm) [%] | % NH4-N Remaining After 2 Weeks Incubation ([1]; 4 ppm) [%]
1 | Cc1ccn2nc(S(=O)(=O)N(C(=O)C3CC3)c3c(F)cccc3F)nc2n1 [Compound 289] | 100 | 80 | 100 | 50 | 100 | 95 | 100 | 100 | 100 | 100 | 100 | 100 | 100 | 100 | 100 |  |  |  |  | 
2 | COC(=O)c1cccc(F)c1NS(=O)(=O)c1nc2nc(OC)c(C)cn2n1 [Compound 215] | 100 | 100 | 100 | 100 | 100 | 100 | 100 | 100 | 100 | 100 | 100 | 100 | 100 | 100 | 100 | 100 |  |  |  | 
3 | Cc1ccn2nc(S(=O)(=O)N(C(=O)c3ccccc3)c3c(Cl)cccc3Cl)nc2n1 [Compound 274, 5-methyl-N-benzoly-N-(2,6-dichlorophenyl)-1,2,4-triazolo[1,5-a]pyrimidine-2-sulfonamide] | 90 | 0 | 100 | 0 | 95 | 60 | 100 | 95 | 70 | 100 | 0 | 90 | 80 | 100 | 80 | 80 |  |  |  | 
4 | Cc1cccc([N+](=O)[O-])c1NS(=O)(=O)c1nc2nccc(C)n2n1 [Compound 184] | 95 | 0 | 100 | 50 | 80 | 0 | 100 | 100 | 30 | 80 | 0 | 98 | 0 | 98 | 80 | 0 |  |  |  | 
5 | Cc1ccnc2nc(S(=O)(=O)Nc3c(F)cccc3F)nn12 [Compound 185] | 90 | 0 | 98 | 70 |  | 0 | 100 | 98 | 90 | 0 | 0 | 90 | 20 | 100 | 80 | 20 |  |  |  | 
6 | Cc1ccn2nc(S(=O)(=O)Nc3c(C)cccc3C#N)nc2n1 [Compound 165] | 60 | 0 | 90 | 10 | 90 | 0 | 30 | 90 | 0 | 90 | 0 | 90 | 60 | 75 | 60 | 0 |  |  |  | 
7 | Cc1cnc2nc(S(=O)(=O)Nc3c(Cl)ccc(C)c3Cl)nn2c1 [Compound 194] | 30 | 0 | 100 | 70 | 0 | 0 | 90 | 90 | 0 | 95 | 0 | 95 | 0 | 100 | 90 | 0 |  |  |  | 
8 | CC(=O)c1cccc(C)c1NS(=O)(=O)c1nc2nc(C)ccn2n1 [Compound 166] | 80 | 20 | 100 | 80 | 80 | 10 | 100 | 100 | 20 | 100 | 30 | 90 | 80 | 100 | 95 | 40 |  |  |  | 
9 | COC(=O)c1cccc(C)c1NS(=O)(=O)c1nc2nc(OC)c(C)cn2n1 [Compound 216] | 100 | 100 | 100 | 70 | 100 | 100 | 100 | 100 | 100 | 70 | 100 | 100 | 75 | 20 | 90 | 90 |  |  |  | 
10 | CC(=O)OCc1cccc(Cl)c1NS(=O)(=O)c1nc2nc(C)cc(C)n2n1 [Compound 94, 5,7-dimethyl-N-(2-acetoxymethyl-6-chlorophenyl)-1,2,4-triazolo[1,5-a]pyrimidine-2-sulfonamide] | 0 |  | 0 | 50 | 0 | 0 | 0 | 60 | 0 | 0 | 0 | 0 | 0 | 100 | 0 | 0 | 28 | 48 | 56 | 84
